Assay results reported in patent publication US8822462B2, “Subunit selective NMDA receptor potentiators for the treatment of neurological conditions” (Emory University, priority 2009, dated 2014).

Legend:
NR1/NR2A = target: T1, NR1/NR2A (Homo sapiens, UniProt Q12879); assay: Two electrode voltage clamp, Xenopus laevis oocytes expressing NR1/NR2A; format: cell-based; settings: read-out: 2A percent effect at the maximum tested concentration
T1 construct: expressed in transfected cells; host or cells: Xenopus laevis oocytes
T1 sequence (Q12879 23-1464, species assumed, other chains not shown): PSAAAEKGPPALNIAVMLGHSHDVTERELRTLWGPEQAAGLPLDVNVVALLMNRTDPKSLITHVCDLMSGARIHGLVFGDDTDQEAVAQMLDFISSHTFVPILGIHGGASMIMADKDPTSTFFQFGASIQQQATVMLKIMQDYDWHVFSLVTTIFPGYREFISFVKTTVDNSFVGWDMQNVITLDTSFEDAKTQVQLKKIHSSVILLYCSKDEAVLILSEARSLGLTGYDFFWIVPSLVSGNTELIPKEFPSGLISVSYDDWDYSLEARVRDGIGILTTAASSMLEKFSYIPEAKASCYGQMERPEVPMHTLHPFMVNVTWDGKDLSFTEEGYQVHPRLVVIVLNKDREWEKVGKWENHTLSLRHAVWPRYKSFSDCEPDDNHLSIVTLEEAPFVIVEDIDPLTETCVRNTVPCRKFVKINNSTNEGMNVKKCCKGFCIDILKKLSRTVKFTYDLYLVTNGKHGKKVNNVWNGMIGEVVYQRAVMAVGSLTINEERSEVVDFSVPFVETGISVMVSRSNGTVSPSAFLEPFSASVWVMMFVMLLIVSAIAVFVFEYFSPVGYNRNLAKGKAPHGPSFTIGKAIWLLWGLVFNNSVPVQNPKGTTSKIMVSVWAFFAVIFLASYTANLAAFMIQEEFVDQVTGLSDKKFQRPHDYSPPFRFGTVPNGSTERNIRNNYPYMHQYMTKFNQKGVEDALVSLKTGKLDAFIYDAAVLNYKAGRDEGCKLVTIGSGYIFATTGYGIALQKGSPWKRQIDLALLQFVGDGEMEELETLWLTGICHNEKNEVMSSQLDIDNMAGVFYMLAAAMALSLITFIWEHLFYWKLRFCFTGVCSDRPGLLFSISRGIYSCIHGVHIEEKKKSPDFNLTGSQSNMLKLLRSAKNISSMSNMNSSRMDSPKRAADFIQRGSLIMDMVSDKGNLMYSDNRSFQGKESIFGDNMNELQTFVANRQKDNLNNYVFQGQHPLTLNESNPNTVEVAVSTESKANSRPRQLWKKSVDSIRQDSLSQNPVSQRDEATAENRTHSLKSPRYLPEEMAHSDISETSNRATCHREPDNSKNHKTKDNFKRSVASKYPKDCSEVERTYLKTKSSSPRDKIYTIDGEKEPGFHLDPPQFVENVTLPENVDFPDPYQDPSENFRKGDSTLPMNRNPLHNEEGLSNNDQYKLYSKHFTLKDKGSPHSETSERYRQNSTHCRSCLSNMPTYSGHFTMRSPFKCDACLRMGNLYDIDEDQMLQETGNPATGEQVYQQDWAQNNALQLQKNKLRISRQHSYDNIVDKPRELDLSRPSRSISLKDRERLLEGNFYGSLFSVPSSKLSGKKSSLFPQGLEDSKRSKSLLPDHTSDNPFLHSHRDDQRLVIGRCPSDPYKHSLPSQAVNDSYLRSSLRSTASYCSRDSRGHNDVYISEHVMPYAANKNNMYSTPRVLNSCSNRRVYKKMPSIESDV
Protocol: (§1) In the table above, potency is expressed as fitted EC50 value to average composite concentration-effect data constructed from current responses recorded under two electrode voltage clamp from Xenopus laevis oocytes expressing either NR1/NR2A, B, C, or D, GluR1, or GluR6. No effect means less than 20% change in response amplitude at 30 μM of drug.

NR1/NR2C = target: T2, NR1/NR2C (Homo sapiens, UniProt Q05586+Q14957); assay: Two electrode voltage clamp, Xenopus laevis oocytes expressing NR1/NR2C; format: cell-based; settings: for activity at 100 µM: read-out: 2C percent effect at the maximum tested concentration; for IC50: fitted to composite concentration-effect data, read-out: 2C IC50; for Emax: maximal effect of fit, read-out: 2C Max
T2 construct: expressed in transfected cells; host or cells: Xenopus laevis oocytes
Description: Values are mean+SEM (n=14-20). […] C is the closed level; broken line is the open level.
The Hill slope at both receptors for all analogues was greater than 1, consistent with a cooperative effect of binding at two sites.
as §1

NR1/NR2B = target: T3, NR1/NR2B (Homo sapiens, UniProt Q05586+Q13224); assay: Two electrode voltage clamp, Xenopus laevis oocytes expressing NR1/NR2B; format: cell-based; settings: for activity at 100 µM / activity at 30 µM: read-out: 2B percent effect at the maximum tested concentration; for IC50: fitted to composite concentration-effect data, Max 0 = inhibition, read-out: 2B IC50
T3 construct: expressed in transfected cells; host or cells: Xenopus laevis oocytes
T3 sequence (Q13224 27-1484, species assumed, other chains not shown): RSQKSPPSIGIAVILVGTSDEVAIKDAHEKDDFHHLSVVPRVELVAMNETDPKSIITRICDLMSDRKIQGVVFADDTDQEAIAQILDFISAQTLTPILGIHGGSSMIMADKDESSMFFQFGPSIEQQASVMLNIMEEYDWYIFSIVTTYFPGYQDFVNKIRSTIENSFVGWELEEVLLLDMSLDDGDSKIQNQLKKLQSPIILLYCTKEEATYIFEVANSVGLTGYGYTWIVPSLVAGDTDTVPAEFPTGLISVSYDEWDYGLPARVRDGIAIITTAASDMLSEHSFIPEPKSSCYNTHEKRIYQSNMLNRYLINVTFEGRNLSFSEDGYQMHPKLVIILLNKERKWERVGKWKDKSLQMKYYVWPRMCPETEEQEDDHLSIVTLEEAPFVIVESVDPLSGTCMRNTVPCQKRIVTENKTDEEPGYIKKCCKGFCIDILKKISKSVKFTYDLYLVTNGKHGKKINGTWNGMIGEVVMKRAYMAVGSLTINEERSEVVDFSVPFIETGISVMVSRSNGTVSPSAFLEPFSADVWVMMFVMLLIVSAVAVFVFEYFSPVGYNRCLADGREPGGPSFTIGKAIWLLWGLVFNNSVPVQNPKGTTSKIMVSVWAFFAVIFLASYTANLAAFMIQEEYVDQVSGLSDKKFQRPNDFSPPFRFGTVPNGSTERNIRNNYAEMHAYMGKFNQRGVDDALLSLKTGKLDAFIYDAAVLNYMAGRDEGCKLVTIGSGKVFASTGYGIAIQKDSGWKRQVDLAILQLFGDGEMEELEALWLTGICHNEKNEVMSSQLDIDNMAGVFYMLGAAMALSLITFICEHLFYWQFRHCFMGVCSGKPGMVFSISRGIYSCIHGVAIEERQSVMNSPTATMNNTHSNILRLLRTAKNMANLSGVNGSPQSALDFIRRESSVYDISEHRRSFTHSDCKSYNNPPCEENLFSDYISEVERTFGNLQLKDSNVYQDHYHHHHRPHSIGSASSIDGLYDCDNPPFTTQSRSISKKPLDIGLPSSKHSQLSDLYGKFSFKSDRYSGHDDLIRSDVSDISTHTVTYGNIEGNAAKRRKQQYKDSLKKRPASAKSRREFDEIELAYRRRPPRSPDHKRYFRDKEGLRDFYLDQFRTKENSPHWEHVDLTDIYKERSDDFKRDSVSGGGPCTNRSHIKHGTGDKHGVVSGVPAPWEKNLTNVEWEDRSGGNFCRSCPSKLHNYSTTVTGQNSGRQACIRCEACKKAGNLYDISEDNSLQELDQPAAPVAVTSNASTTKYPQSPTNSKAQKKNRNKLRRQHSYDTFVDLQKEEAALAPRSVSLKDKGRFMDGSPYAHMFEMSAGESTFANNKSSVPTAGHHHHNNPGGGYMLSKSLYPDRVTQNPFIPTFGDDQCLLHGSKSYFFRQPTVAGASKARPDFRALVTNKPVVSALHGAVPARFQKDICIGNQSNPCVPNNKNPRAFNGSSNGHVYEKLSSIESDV
Protocol: as §1

NR1/NR2D = NR1/NR2D (Homo sapiens, UniProt O15399+Q05586); assay: Two electrode voltage clamp, Xenopus laevis oocytes expressing NR1/NR2D; settings: for activity at 100 µM: read-out: 2D percent effect at the maximum tested concentration, at 100 μM; for Emax: read-out: 2D Max
Sequence of NR1/NR2D (O15399 28-1336, species assumed, other chains not shown): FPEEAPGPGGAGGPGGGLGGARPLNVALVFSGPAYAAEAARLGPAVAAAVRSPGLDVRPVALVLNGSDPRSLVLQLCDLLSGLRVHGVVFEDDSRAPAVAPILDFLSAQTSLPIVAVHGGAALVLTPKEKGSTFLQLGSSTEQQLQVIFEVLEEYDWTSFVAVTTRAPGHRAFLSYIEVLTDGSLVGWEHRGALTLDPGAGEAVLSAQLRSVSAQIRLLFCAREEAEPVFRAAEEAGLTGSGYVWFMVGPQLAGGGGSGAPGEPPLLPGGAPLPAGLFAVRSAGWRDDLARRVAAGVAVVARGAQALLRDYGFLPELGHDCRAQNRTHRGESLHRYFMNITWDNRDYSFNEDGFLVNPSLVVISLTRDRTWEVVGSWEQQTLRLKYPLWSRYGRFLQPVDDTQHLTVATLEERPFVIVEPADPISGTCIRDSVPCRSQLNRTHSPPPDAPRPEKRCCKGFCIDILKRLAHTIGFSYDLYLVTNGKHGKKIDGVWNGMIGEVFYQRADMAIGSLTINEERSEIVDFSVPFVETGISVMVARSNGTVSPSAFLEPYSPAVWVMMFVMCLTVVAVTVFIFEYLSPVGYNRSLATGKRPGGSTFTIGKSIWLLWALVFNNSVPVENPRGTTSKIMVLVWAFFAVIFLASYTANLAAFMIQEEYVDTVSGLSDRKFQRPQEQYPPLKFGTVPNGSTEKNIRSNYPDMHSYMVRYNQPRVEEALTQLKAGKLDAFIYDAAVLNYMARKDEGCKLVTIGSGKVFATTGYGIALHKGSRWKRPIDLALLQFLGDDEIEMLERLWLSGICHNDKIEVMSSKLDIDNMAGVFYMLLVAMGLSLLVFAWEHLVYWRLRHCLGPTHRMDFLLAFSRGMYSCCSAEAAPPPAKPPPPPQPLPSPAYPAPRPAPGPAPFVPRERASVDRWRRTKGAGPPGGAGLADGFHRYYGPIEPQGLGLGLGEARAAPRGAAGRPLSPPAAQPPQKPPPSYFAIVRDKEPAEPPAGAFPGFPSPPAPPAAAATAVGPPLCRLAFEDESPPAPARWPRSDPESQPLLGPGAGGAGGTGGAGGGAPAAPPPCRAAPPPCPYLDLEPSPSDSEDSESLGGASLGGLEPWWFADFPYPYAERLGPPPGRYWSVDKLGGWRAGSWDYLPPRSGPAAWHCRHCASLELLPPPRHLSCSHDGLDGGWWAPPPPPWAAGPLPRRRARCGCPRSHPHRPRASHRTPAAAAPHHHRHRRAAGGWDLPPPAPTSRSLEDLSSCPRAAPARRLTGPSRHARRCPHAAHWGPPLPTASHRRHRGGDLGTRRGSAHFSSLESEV

Compound	activity at 100 µM (NR1/NR2A)	activity at 100 µM (NR1/NR2C)	activity at 100 µM (NR1/NR2B)	activity at 100 µM (NR1/NR2D)	IC50 (NR1/NR2C)	Emax (NR1/NR2C)	IC50 (NR1/NR2D)	Emax (NR1/NR2D)	IC50 (NR1/NR2B)	activity at 30 µM (NR1/NR2A)	activity at 30 µM (NR1/NR2B)	activity at 30 µM (NR1/NR2D; read-out: 2D percent effect at the maximum tested concentration, at 30 μM)
O=C(O)C1=C(NC(=O)c2ccc(Br)cc2)SC2CCCC12 (centres unmarked) [compound 1404]	86%	99%	68%	77%								
COc1ccc(OCC2c3c(cc(OC)cc3OC)CCN2C(=O)c2cccc(Cl)c2)cc1 (centres unmarked) [1180-20]	92%		86%		11 µM	253%	18 µM	271%				
CC(C)(C)c1ccc(C(=O)Nc2sc3c(c2C(=O)O)CCCC3)cc1 [compound 1417]	87%		102%		20 µM	202%	16 µM	205%				
COc1cc2c(cc1OC)C(COc1ccccc1OC)N(C(=O)c1cccc(Cl)c1)CC2 (centres unmarked) [1180-8]	99%	73%	89%	84%								
COc1ccc(OCC2c3cc(OC)c(OC)cc3CCN2C(=O)c2ccc(F)c(Cl)c2)cc1 (centres unmarked) [1180-18]	136%		95%		6 µM	226%	7 µM	206%				
CC(C)(C)c1ccc(C(=O)Nc2sc3c(c2C(=O)O)CCC3)cc1 [compound 1399]	100%		108%		77 µM	301%	26 µM	261%				
CSC1=NCCN1C(=O)c1ccc(C)cc1 [compound 1344]	78%	88%		97%					174 µM			
COc1ccc(OCC2c3cc(OC)c(OC)cc3CCN2C(=O)c2cccs2)cc1 (centres unmarked) [compound 1486]	78%		88%		9 µM	131%	6 µM	112%				
COc1ccc(OCC2c3cc(OC)c(OC)cc3CCN2C(=O)c2cccc([N+](=O)[O-])c2)cc1 (centres unmarked) [1180-16]	50%		123%		13 µM	267%	16 µM	297%				
COc1ccc(/C=C/C2c3cc(OC)c(OC)cc3CCN2C(=O)c2cccc(Cl)c2)cc1 (centres unmarked) [1180-31]					1.2 µM	190%	1.5 µM	172%		95%	82%	
COc1ccc(OCC2c3cc(OC)c(OC)cc3CCN2C(=O)c2cccc(I)c2)cc1 (centres unmarked) [1180-11]					31 µM	431%				84%	82%	111%
COc1ccc(C(=O)Nc2sc(C)cc2C(=O)O)cc1 [compound 1420]	118%	94%	97%	75%								
COc1ccc(OCC2c3cc(OC)c(OC)cc3CCN2C(=O)c2cccc(O)c2)cc1 (centres unmarked) [1180-3]	126%	81%	78%	79%								
CCc1ccc(OCC2c3cc(OC)c(OC)cc3CCN2C(=O)c2ccccc2)cc1 (centres unmarked) [compound 1366]	98%		97%	108%	3 µM	121%						
CC(C)(C)c1ccc(C(=O)Nc2scc(-c3ccccc3)c2C(=O)O)cc1 [compound 1406]	75%				45 µM	341%	44 µM	351%	37 µM			
Cc1cc(NC(=O)c2ccc(C(C)(C)C)cc2)no1 [compound 1401]	105%	97%	87%	86%								
Cc1ccnc(NC(=O)c2ccc(C(C)(C)C)cc2)c1 [compound 1398]	89%	87%	102%	76%								
